In patent US4599333A, “Hydrazinopyridazine compound, process for production thereof, and use thereof as medicament” (Teikoku Hormone Mfg. Co., Ltd., priority 1984, dated 1986):

Legend:
Type in all cases: in vivo, male Wistar rats
β1-adrenoceptors = biological target: T1, β1-adrenoceptors (Rattus norvegicus, UniProt P18090); assay: β1-adrenoceptor blocking action (inhibition of increase in heart rate exerted by isoproterenol) and selectivity for β1-adrenoceptors; conditions: blocking activity ratio from ID50 doses; Table 2
T1 construct: Experiments were done using male Wistar rats; from tissue; host or cells: whole anesthetized male Wistar rat (in vivo; heart rate)
T1 sequence (P18090 whole entry): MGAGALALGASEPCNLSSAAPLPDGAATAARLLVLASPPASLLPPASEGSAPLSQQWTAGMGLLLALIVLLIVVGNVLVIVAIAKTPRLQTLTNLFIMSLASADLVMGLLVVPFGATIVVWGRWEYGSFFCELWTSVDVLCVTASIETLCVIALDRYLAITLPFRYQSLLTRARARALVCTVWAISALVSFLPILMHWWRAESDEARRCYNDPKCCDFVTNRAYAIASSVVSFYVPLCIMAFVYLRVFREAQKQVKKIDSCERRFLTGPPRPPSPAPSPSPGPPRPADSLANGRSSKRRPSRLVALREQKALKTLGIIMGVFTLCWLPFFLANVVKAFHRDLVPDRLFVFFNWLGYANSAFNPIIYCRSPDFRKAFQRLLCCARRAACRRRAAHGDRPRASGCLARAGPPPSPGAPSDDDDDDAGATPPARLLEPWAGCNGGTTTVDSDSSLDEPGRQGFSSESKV
Experimental: (§1) Experiments were done using male Wistar rats weighing between 300 and 400 g, anesthetized with sodium pentobarbital (60 mg/kg i.p.). The blood pressure was directly measured by connecting a cannula inserted in the femoral artery to a pressure transducer and the heart rate was calculated from the pulse waves of the blood pressure tracings. Each value shown here was obtained from three animals. The test compounds were individually dissolved in physiological saline solution or a 0.01N aqueous solution of hydrochloric acid.
(§2) (1) Measurement of β-adrenoceptor blocking activity
The increased heart rate before injection of the test compound was represented by H1. Three minutes after i.v. injection of the test compound, isoproterenol (0.1 μg/kg i.v.) was again administered and then the change in heart rate was measured. The maximum increase in heart rate after injection of the test compound was designated as H2. From these values, the percent inhibition of the change in heart rate was calculated in accordance with the following equation.
(§3) By repeating the procedure mentioned above at various doses of the test compounds, dose-response curves were prepared.

β2 = biological target: T2, β2 (Rattus norvegicus, UniProt P10608); assay: β2-adrenoceptor blocking action (inhibition of fall in blood pressure exerted by isoproterenol); conditions: iv, 50% inhibition of fall in blood pressure by isoproterenol 0.1 μg/kg i.v., Table 2, read-out: β-adrenoceptor blocking action ID50 β2
T2 construct: Experiments were done using male Wistar rats; from tissue; host or cells: whole anesthetized male Wistar rat (in vivo; arterial blood pressure)
T2 sequence (P10608 whole entry): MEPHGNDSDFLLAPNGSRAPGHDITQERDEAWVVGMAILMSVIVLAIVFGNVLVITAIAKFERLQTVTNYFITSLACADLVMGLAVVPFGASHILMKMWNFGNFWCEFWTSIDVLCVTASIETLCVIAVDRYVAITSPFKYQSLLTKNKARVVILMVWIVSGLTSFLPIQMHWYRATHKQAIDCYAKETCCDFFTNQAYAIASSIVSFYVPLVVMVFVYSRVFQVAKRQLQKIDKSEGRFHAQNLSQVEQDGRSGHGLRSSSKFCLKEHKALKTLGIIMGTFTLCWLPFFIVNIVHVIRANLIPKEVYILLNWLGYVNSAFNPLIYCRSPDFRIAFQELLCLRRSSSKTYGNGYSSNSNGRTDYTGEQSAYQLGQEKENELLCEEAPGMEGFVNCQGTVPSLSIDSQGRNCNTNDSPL
Experimental: as §1, §2, §3

heart rate = assay: Heart rate increase produced by isoproterenol; conditions: single i.v. injection 0.1 μg/kg, before test compound
Experimental: Experiments were done using male Wistar rats weighing between 300 and 400 g, anesthetized with sodium pentobarbital (60 mg/kg i.p.). The blood pressure was directly measured by connecting a cannula inserted in the femoral artery to a pressure transducer and the heart rate was calculated from the pulse waves of the blood pressure tracings. Each value shown here was obtained from three animals. The test compounds were individually dissolved in physiological saline solution or a 0.01N aqueous solution of hydrochloric acid. A single intravenous (i.v.) injection of isoproternol (0.1 μg/kg) produced an increase in heart rate by approximately 90 beats/min. The increased heart rate before injection of the test compound was represented by H1. Three minutes after i.v. injection of the test compound, isoproterenol (0.1 μg/kg i.v.) was again administered and then the change in heart rate was measured. The maximum increase in heart rate after injection of the test compound was designated as H2. From these values, the percent inhibition of the change in heart rate was calculated in accordance with the following equation.

Row | Compound | Selectivity for β1-adrenoceptors (β1/β2) (β1-adrenoceptors) | ED50 (β2) [mg/kg] | increase in heart rate (heart rate)
1 | CC(C)NCC(O)COc1ccc(CC(N)=O)cc1 (stereo not drawn) [Atenolol, reference compound] | 30 | 1.5 | 
2 | CC(C)(COc1ccc(NN)nn1)NCC(O)COc1ccccc1Cl (stereo not drawn) [B, 1-(2-chlorophenoxy)-3-[1,1-dimethyl-2-(3-hydrazino-6-pyridazinyloxy)ethylamino]-2-propanol] | 29 | 0.23 | 
3 | Cc1ccc(C#N)c(OCC(O)CNC(C)(C)COc2ccc(NN)nn2)c1 (stereo not drawn) [K, 1-(2-cyano-5-methylphenoxy)-3-[1,1-dimethyl-2-(3-hydrazino-6-pyridazinyloxy)ethylamino]-2-propanol] | 2 | 0.1 | 
4 | Cc1ccccc1OCC(O)CNC(C)(C)COc1ccc(NN)nn1 (stereo not drawn) [C, 1-(2-methylphenoxy)-3-[1,1-dimethyl-2-(3-hydrazino-6-pyridazinyloxy)ethylamino]-2-propanol] | 30 | 0.45 | 
5 | CC(C)NCC(O)c1ccc(O)c(O)c1 (stereo not drawn) [isoproternol, isoproterenol] |  |  | approximately 90 beats/min
6 | CC(C)(COc1ccc(NN)nn1)NCC(O)COc1ccccc1C#N (stereo not drawn) [Compound I, 1-(2-cyanophenoxy)-3-[1,1-dimethyl-2-(3-hydrazino-6-pyridazinyloxy)ethylamino]-2-propanol] | 5 | 0.1 | 
7 | C#Cc1ccccc1OCC(O)CNC(C)(C)COc1ccc(NN)nn1 (stereo not drawn) [R, 1-(2-ethinylphenoxy)-3-[1,1-dimethyl-2-(3-hydrazino-6-pyridazinyloxy)ethylamino]-2-propanol] | > 5 |  | 
